One may read the Km as the substrate concentration at which the rate is half of its maximum.

The assay relates to XPD (Rad3) helicase. Briefly: single-molecule TIRF, Cy3 quenching by FeS cluster. The note with it: 3'-Cy3 ssDNA, 600 pM XPD, no RPA; 50 mM Tris-HCl pH 7.5, 3 mM MgCl2, 25 °C. It is filed as biochemical, Ferroplasma acidarmanus.

As for `Nc1ncnc2c1ncn2[C@@H]1O[C@H](COP(=O)(O)OP(=O)(O)OP(=O)(O)O)[C@@H](O)[C@H]1O` [ATP], the Km was 2.8 ± 1 µM.

For the origin of these results see paper PMC2776038 (Molecular cell, 2009).
